Laboratory results published in patent US20260001893A1, “SMALL MOLECULE MODULATORS OF STAT6” (Gilead Sciences, Inc., priority 2024, published 2026).

Biological target: T1, Human STAT6 (truncated, aa122-658, with N-terminal His-tag) (Homo sapiens, UniProt P42226)
T1 construct: Human STAT6 (truncated, aa122-658, with N-terminal His-tag, expressed in insect cells); His-tag (N); made in house; host or cells: insect cells
T1 sequence (P42226 122-658): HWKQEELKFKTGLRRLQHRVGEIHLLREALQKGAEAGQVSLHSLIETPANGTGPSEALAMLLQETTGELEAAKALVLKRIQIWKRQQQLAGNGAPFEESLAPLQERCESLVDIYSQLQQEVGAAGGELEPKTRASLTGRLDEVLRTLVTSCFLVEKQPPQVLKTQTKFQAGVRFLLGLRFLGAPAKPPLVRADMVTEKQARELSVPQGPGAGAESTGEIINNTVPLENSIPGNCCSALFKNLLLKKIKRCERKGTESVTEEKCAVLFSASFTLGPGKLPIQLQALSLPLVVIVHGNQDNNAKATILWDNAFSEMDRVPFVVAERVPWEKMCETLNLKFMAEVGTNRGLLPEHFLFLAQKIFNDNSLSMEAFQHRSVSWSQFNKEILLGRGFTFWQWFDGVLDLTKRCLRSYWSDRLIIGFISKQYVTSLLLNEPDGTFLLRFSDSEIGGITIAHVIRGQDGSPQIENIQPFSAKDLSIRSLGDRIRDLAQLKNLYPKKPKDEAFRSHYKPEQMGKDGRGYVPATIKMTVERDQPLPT
Test: Surface plasmon resonance (SPR) assay, binding to human STAT6
Conditions: Biacore 8K, 25° C, immobilized human STAT6 on CM5 chip, multi-cycle kinetics; geometric mean
Description: Surface Plasmon Resonance Assay
Biacore instruments from the 8K-series (Cytiva) were used, and measurements were performed at 25° C. Human STAT6 (truncated, aa122-658, with N-terminal His-tag, expressed in insect cells) was immobilized in the active flow cells on a CM5 chip using amine-coupling (default settings) at 10 μg/ml in 10 mM acetate buffer pH 5.5, at a contact time of 120-420 sec. and a flow rate of 10 μl/min. Reference flow cells were deactivated using blank immobilization. PBS-P+(Cytiva) supplemented with 2% DMSO was used as running buffer, and solvent correction was applied. Compounds were tested by multi-cycle kinetics injections using a contact time of 60 sec., dissociation time of up to 300 sec., and a flow rate of 30 μl/min.
Solvent-corrected, reference-subtracted and blank-corrected data was processed and binding isotherms were fitted according to a single report point from each sensorgram (Standard: Late binding (5 sec. before injection end); alternative: Earlier report point according to binding profile). Data fitting was done both with unfixed Rmax and with Rmax fixed to the theoretical value* assuming 1:1 binding to allow processing of data from both weak and strong binders as well as to evaluate binding stoichiometry.
Positive controls were run at the beginning, during, and at the end of the screen to evaluate surface activity.
*Equation for calculation of the theoretical Rmax(Theoretical Rmax=(MW Analyte/MW Ligand)×immobilization level).

`CNc1cc(=O)n(-c2ccnc3c2cc(CN2CCC(c4ccc(C(=O)N(C)C)cc4)CC2)n3C)cn1` [Example 1ac1, N,N-Dimethyl-4-(1-((1-methyl-4-(4-(methylamino)-6-oxopyrimidin-1 (6H)-yl)-1H-pyrrolo[2,3-b]pyridin-2-yl)methyl)piperidin-4-yl)benzamide] and `CN(C)C(=O)c1ccc(C2CCN(Cc3cc4c(-n5ccc(NC(C)(C)C)cc5=O)ccnc4n3C)CC2)cc1` [Example 1d9, 4-[1-[[4-[4-(tert-Butylamino)-2-oxo-1-pyridyl]-1-methyl-pyrrolo[2,3-b]pyridin-2-yl]methyl]-4-piperidyl]-N,N-dimethyl-benzamide] are within 1.5-fold of each other in Kd: 4090 nM for the first, 4970 nM for the second.

`Cc1cn(-c2ccnc3c2cc(CN2CCC(c4ccc(C(=O)N(C)C)cc4)CC2)n3C)c(=O)nc1N` [Example 1ac3, 4-(1-((4-(4-Amino-5-methyl-2-oxopyrimidin-1 (2H)-yl)-1-methyl-1H-pyrrolo[2,3-b]pyridin-2-yl)methyl)piperidin-4-yl)-N,N-dimethylbenzamide] and `CN(C)C(=O)c1ccc(C2CCN(Cc3cc4c(-n5ccc(N)c(C6CC6)c5=O)ccnc4n3C)CC2)cc1` [Example 1d28, 4-[1-[[4-(4-Amino-3-cyclo-propyl-2-oxo-1-pyridyl)-1-methyl-pyrrolo[2,3-b]pyridin-2-yl]methyl]-4-piperidyl]-N,N-dimethyl-benzamide] are within 1.5-fold of each other in Kd: 91.8 nM for the first, 76.4 nM for the second.

`CN(C)C(=O)c1ccc(C2CCN(Cc3cc4c(-n5ccc(NC(=O)OC(C)(C)C)cc5=O)ccnc4n3C)CC2)cc1` [Example 1d2, tert-Butyl N-[1-[2-[[4-[4-(dimethylcarbamoyl)phenyl]-1-piperidyl]methyl]-1-methyl-pyrrolo[2,3-b]pyridin-4-yl]-2-oxo-4-pyridyl]carbamate] and `COC(=O)Nc1ccn(-c2ccnc3c2cc(CN2CCC(c4ccc(C(=O)N(C)C)cc4)CC2)n3C)c(=O)c1` [Example 1d6, Methyl N-[1-[2-[[4-[4-(dimethylcarbamoyl)phenyl]-1-piperidyl]methyl]-1-methyl-pyrrolo[2,3-b]pyridin-4-yl]-2-oxo-4-pyridyl]carbamate] are within 1.5-fold of each other in Kd: 175 nM for the first, 152 nM for the second.

First: CCOC(=O)Nc1ccn(-c2ccnc3c2cc(CN2CCC(c4ccc(C(=O)N(C)C)cc4)CC2)n3C)c(=O)c1 [Example 1d5, Ethyl N-[1-[2-[[4-[4-(dimethylcarbamoyl)phenyl]-1-piperidyl]methyl]-1-methyl-pyrrolo[2,3-b]pyridin-4-yl]-2-oxo-4-pyridyl]carbamate]
Second: CN(C)C(=O)c1ccc(C2CCN(Cc3cc4c(-n5ccc(NCC6CC6)cc5=O)ccnc4n3C)CC2)cc1 [Example 1d7, 4-[1-[[4-[4-(cyclo-Propylmethylamino)-2-oxo-1-pyridyl]-1-methyl-pyrrolo[2,3-b]pyridin-2-yl]methyl]-4-piperidyl]-N,N-dimethyl-benzamide]
The Kd of the first is 1.8-fold higher: 178 nM for the first, 99.8 nM for the second. The second binds more tightly here.

First: CCN(CC)C(=O)c1ccc(C2CCN(Cc3cc4c(-n5ccc(NC)cc5=O)ccnc4n3C)CC2)cc1 [Example 1d10, N,N-Diethyl-4-[1-[[1-methyl-4-[4-(methylamino)-2-oxo-1-pyridyl]pyrrolo[2,3-b]pyridin-2-yl]methyl]-4-piperidyl]benzamide]
Second: CCCN(CCC)C(=O)c1ccc(C2CCN(Cc3cc4c(-n5ccc(NC)cc5=O)ccnc4n3C)CC2)cc1 [Example 1d11, N,N-Dipropyl-4-[1-[[1-methyl-4-[4-(methylamino)-2-oxo-1-pyridyl]pyrrolo[2,3-b]pyridin-2-yl]methyl]-4-piperidyl]benzamide]
The Kd of the first is 1.7-fold lower: 22.8 nM for the first, 38.4 nM for the second.

Going from `CN(C)C(=O)c1ccc(C2CCN(Cc3cc4c(-n5ccc(NCc6ccccc6)cc5=O)ccnc4n3C)CC2)cc1` [Example 1d12, 4-[1-[[4-[4-(Benzylamino)-2-oxo-1-pyridyl]-1-methyl-pyrrolo[2,3-b]pyridin-2-yl]methyl]-4-piperidyl]-N,N-dimethyl-benzamide] to `CN(C)C(=O)c1ccc(C2CCN(Cc3cc4c(-n5ccc(NCc6ccc(Cl)cc6)cc5=O)ccnc4n3C)CC2)cc1` [Example 1d13, 4-[1-[[4-[4-[(4-Chlorophenyl)methylamino]-2-oxo-1-pyridyl]-1-methyl-pyrrolo[2,3-b]pyridin-2-yl]methyl]-4-piperidyl]-N,N-dimethyl-benzamide], the Kd rises from 31 nM to 49 nM (1.6-fold).

`CN(C)C(=O)c1ccc(C2CCN(Cc3cc4c(-n5ccc(NCc6ccc(F)c(F)c6)cc5=O)ccnc4n3C)CC2)cc1` [Example 1d14, 4-[1-[[4-[4-[(3,4-Difluorophenyl)methylamino]-2-oxo-1-pyridyl]-1-methyl-pyrrolo[2,3-b]pyridin-2-yl]methyl]-4-piperidyl]-N,N-dimethyl-benzamide] and `CN(C)C(=O)c1ccc(C2CCN(Cc3cc4c(-n5ccc(NC6CC6)cc5=O)ccnc4n3C)CC2)cc1` [Example 1d15, 4-[1-[[4-[4-(cyclo-Propylamino)-2-oxo-1-pyridyl]-1-methyl-pyrrolo[2,3-b]pyridin-2-yl]methyl]-4-piperidyl]-N,N-dimethyl-benzamide] are within 1.5-fold of each other in Kd: 124 nM for the first, 112 nM for the second.

First: CN(C)C(=O)c1ccc(C2CCN(Cc3cc4c(-n5c(F)c(Cl)c(N)c(Cl)c5=O)ccnc4n3C)CC2)cc1 [Example 1d17, 4-[1-[[4-(4-Amino-3,5-dichloro-2-fluoro-6-oxo-1-pyridyl)-1-methyl-pyrrolo[2,3-b]pyridin-2-yl]methyl]-4-piperidyl]-N,N-methyl-benzamide]
Second: CN(C)C(=O)c1ccc(C2CCN(Cc3cc4c(-n5ccc6c(c5=O)CCCN6)ccnc4n3C)CC2)cc1 [Example 1d35, N,N-Dimethyl-4-[1-[[1-methyl-4-(5-oxo-1,2,3,4-tetrahydro-1,6-naphthyridin-6-yl)pyrrolo[2,3-b]pyridin-2-yl]methyl]-4-piperidyl]benzamide]
The Kd of the first is 260-fold higher: 6620 nM for the first, 25.1 nM for the second.

Compared with `[2H]C([2H])([2H])N(C(=O)c1ccc(C2CCN(Cc3cc4c(-n5ccc(NC)cc5=O)ccnc4n3C)CC2)c(C)c1)C([2H])([2H])[2H]` [Example 1d26, 3-Methyl-4-[1-[[1-methyl-4-[4-(methylamino)-2-oxo-1-pyridyl]pyrrolo[2,3-b]pyridin-2-yl]methyl]-4-piperidyl]-N,N-bis(trideuteriomethyl)benzamide], `CNc1ccn(-c2ccnc3c2cc(CN2CCC(c4ccc(C(=O)N(C)C)cc4C(F)(F)F)CC2)n3C)c(=O)c1` [Example 1d38, N,N-Dimethyl-4-[1-[[1-methyl-4-[4-(methylamino)-2-oxo-1-pyridyl]pyrrolo[2,3-b]pyridin-2-yl]methyl]-4-piperidyl]-3-(trifluoromethyl)benzamide] is 8.2-fold higher in Kd: 69.7 nM for the first, 570 nM for the second. The first binds more tightly here.

Compared with `CN(C)C(=O)c1ccc(C2CC[N+]([O-])(Cc3cc4c(-n5ccc(N)cc5=O)ccnc4n3C)CC2)cc1` (centres unmarked) [Example 1d32, 4-[1-[[4-(4-Amino-2-oxo-1-pyridyl)-1-methyl-pyrrolo[2,3-b]pyridin-2-yl]methyl]-1-oxido-piperidin-1-ium-4-yl]-N,N-dimethyl-benzamide], `CN(C)C(=O)c1ccc(C2CC[N+]([O-])(Cc3cc4c(-n5ccc6c(c5=O)CCN6)ccnc4n3C)CC2)cc1` (centres unmarked) [Example 1d33, N,N-Dimethyl-4-[1-[[1-methyl-4-(4-oxo-2,3-dihydro-1H-pyrrolo[3,2-c]pyridin-5-yl)pyrrolo[2,3-b]pyridin-2-yl]methyl]-1-oxido-piperidin-1-ium-4-yl]benzamide] is 4.4-fold lower in Kd: 333 nM for the first, 75.1 nM for the second.

First: CNc1ccn(-c2ccnc3c2cc(CN2CCC(F)(c4ccc(C(=O)N(C)C)cc4)CC2)n3C)c(=O)c1 [Example 1f5, 4-[4-Fluoro-1-[[1-methyl-4-[4-(methylamino)-2-oxo-1-pyridyl]pyrrolo-[2,3-b]pyridin-2-yl]methyl]-4-piperidyl]-N,N-dimethyl-benzamide]
Second: CNc1ccn(-c2ccnc3c2cc(CN2CCN(c4ccc(C(=O)N(C)C)cc4)C[C@@H]2C)n3C)c(=O)c1 [Example 1m1, (S)—N,N-dimethyl-4-(3-methyl-4-((1-methyl-4-(4-(methylamino)-2-oxopyridin-1 (2H)-yl)-1H-pyrrolo[2,3-b]pyridin-2-yl)methyl)piperazin-1-yl)benzamide]
The Kd of the first is 2.7-fold higher: 156 nM for the first, 58.6 nM for the second. The second binds more tightly here.

Molecule `CNc1ccn(-c2ccnc3c2cc(CN2CCN(c4ccc(C(=O)N(C)C)cc4)C[C@H]2C)n3C)c(=O)c1` [Example 1m2, (R)—N,N-Dimethyl-4-(3-methyl-4-((1-methyl-4-(4-(methylamino)-2-oxopyridin-1 (2H)-yl)-1H-pyrrolo[2,3-b]pyridin-2-yl)methyl)piperazin-1-yl)benzamide] has a Kd of 188 nM.
